The source of these data is article PMC5015959, “The Binding of Plasmodium falciparum Adhesins and Erythrocyte Invasion Proteins to Aldolase Is Enhanced by Phosphorylation” (PLoS ONE, 2016).

For one test, the target named is T1, P. falciparum aldolase (Plasmodium falciparum, UniProt Q7KQL9).
T1 construct: made in house
As to the kind of experiment: biochemical. It is filed as binding. The settings on record: for increase in affinity for aldolase following phosphorylation: phosphorylated versus unmodified CTD, from Kd values of Table 3. The text has this:
CTDs of four classes of type 1 membrane protein (AMA1 and the TRAP, EBL and RH families) that are potential adhesins or host cell invasion proteins derived from apical organelles, and present in the merozoite plasma membrane during invasion, were examined for their ability to bind to aldolase using bio-layer interferometry. Streptavidin-coated biosensors were loaded with biotinylated synthetic peptides or recombinant proteins representing either the full length CTDs or shorter C-terminal sequences (Table 1) and titrated with increasing aldolase concentrations. This analysis enabled the calculation of a dissociation constant (Kd) for each pair of proteins as a measure of the strength of interaction between them.
The effect of the CTD phosphorylation on aldolase binding was investigated using biolayer interferometry using phosphorylated synthetic peptides or peptides phosphorylated in vitro (Table 3).
Protein interactions were analysed by biolayer interferometry using the Octet Red system (ForteBio) at 25°C in 96-well microplates, as described previously. All assays were performed in 100 mM Tris-HCl pH 8.0, according to the manufacturer’s instructions. A baseline was established over 1 min, and biotinylated samples were loaded onto streptavidin sensors for 1 min. The sensors were washed for 1 min and then incubated with aldolase at different concentrations (0.05–250 μM) for 1 min, followed by a dissociation phase over 5 min. The experiments were performed in duplicate or triplicate depending on the experiment. The data were analysed as described previously.

The next test concerns CK2. As to the kind of experiment: In vitro phosphorylation of CTDs by CK2. It is filed as biochemical. The settings on record: 10 μM kinase, 100 μM substrate, 1 mM ATP, 30°C, 3 hours; ES-MS and CID. As to the method:
The phosphorylation of MTRAP and TRAP CTDs expressed as fusion proteins with GST was evaluated in vitro by ^32P incorporation (Fig 1A) and by electrospray (ES) mass spectrometry and collision-induced dissociation (CID) fragmentation analysis. […] MTRAP CTD produced as either a recombinant protein or as a synthetic peptide was also phosphorylated by PKA at the same two positions (S2A Fig). […] Using ES-MS and CID it was determined that both CDPK1 and PKA phosphorylated AMA1 at Ser610 (S1B and S2B Figs), the residue implicated in earlier studies. […] CDPK1 but not PKA phosphorylated EBA140 (Table 2, S2E Fig), the exact sites of which were not determined (S1E Fig). […]
(§1) Phosphorylation assays were performed using 10 μM recombinant CDPK1 [37], PKA (Promega), or CK2 (New England Biolabs) in kinase buffer (20 mM Tris-HCl pH 8.0, 20 mM MgCl2, with or without 1 mM CaCl2) and 1 mM ATP at 30°C for 3 hours with 100 μM substrate protein. Products were analysed by mass spectrometry and used in binding assays (see below). […]
Non-phosphorylated, phosphorylated and biotinylated polypeptides were analysed by electrospray (ES)-mass spectrometry and collision-induced dissociation (CID) fragmentation pathway analysis. […] Phosphorylation sites were determined using stand-alone nanospray on an LTQ Orbitrap Velos (Thermo Fisher Scientific). […]

The test system of another test is CDPK1. As to the kind of experiment: In vitro phosphorylation of CTDs by CDPK1. It counts as biochemical. Set-up: key: Phosphorylation (+) was confirmed by electrospray-mass spectrometry. The settings on record: 10 μM kinase, 100 μM substrate, 1 mM ATP, 30°C, 3 hours; electrospray-mass spectrometry. As to the method: To examine whether or not phosphorylation affected the ability of the CTDs to bind aldolase, we first looked at their ability to be phosphorylated by serine/threonine kinases in vitro. Two kinases, CDPK1 and PKA, which have been implicated in phosphorylation of glideosome proteins, were chosen for this analysis (Table 2).
The phosphorylation of MTRAP and TRAP CTDs expressed as fusion proteins with GST was evaluated in vitro by ^32P incorporation (Fig 1A) and by electrospray (ES) mass spectrometry and collision-induced dissociation (CID) fragmentation analysis. […] Using ES-MS and CID it was determined that both CDPK1 and PKA phosphorylated AMA1 at Ser610 (S1B and S2B Figs), the residue implicated in earlier studies. […] CDPK1 but not PKA phosphorylated EBA140 (Table 2, S2E Fig), the exact sites of which were not determined (S1E Fig). […]
as §1
Non-phosphorylated, phosphorylated and biotinylated polypeptides were analysed by electrospray (ES)-mass spectrometry and collision-induced dissociation (CID) fragmentation pathway analysis. […]

Where no end group is shown, it is not given here. The star is where a group is joined. Biotin = O=C1N[C@H]2[C@H](CS[C@H]2CCCCC(=O)*)N1

T1 sequence (Q7KQL9 whole entry): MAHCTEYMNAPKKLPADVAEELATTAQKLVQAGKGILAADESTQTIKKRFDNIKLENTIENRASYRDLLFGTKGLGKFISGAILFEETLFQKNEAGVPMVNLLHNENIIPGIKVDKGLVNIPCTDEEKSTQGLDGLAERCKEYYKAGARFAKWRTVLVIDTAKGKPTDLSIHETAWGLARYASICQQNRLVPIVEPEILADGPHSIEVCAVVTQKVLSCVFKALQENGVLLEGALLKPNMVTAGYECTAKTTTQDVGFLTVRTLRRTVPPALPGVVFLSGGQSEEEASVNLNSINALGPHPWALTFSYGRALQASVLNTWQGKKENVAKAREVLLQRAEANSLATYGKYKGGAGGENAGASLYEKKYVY

With “Biotin-KNSNEPHHIFNIFQKEFSEADNAHSEEKEEYLPVYFDEVEDEVEDEVEDEDENENEVENENEDFNDI [RH4, cytoplasmic domain of RH4, residues 1650–1716]”, the “increase in affinity for aldolase following phosphorylation” value on P. falciparum aldolase is listed as “no increase in affinity”. For the same substance, in the test with CK2, the “phosphorylation by CK2 in vitro” value was “one phosphate group”.

For the substance “Biotin-KNNKQEYDKEQEKQQQNDFVCDNNKMDDKSTQKYGRNQEEVMEIFFDNDYI [RH1 2921–2971]”, on P. falciparum aldolase (biolayer interferometry (Octet Red), biotinylated CTD on streptavidin sensor, aldolase 0.05–250 μM, 100 mM Tris-HCl pH 8.0, 25°C, mean of duplicate reactions), the affinity, expressed as Kd, was 6.1 µM. Also, the “increase in affinity for aldolase following phosphorylation” value at P. falciparum aldolase is given as “around 2 fold”. For the same substance, in the test with CDPK1, the “CTD peptide phosphorylation by CDPK1 in vitro” value is “+”.

In general, Kd refers to the equilibrium constant for the complex coming apart.
